How the values were obtained:
human TASK-1 = human TASK-1 (Homo sapiens, UniProt O14649); assay: Inhibition of recombinant TASK-1 in stably transfected CHO cells, KCl-induced depolarization, voltage-sensitive dye (B-2); type: cell-based; design: expressed in transfected cells; host or cells: stably transfected CHO cells; settings: depolarization induced by 40 mM potassium chloride, some mean values from multiple determinations
Summary of the method: (§1)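 Stably transfected CHO cells loaded with a voltage-sensitive membrane potential dye. Depolarization was induced with 40 mM KCl, and compound inhibition of it was read by fluorescence. IC50 is the concentration blocking half of the KCl-induced depolarization; some values are means of multiple independent determinations.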

human TASK-3 = human TASK-3 (Homo sapiens, UniProt Q9NPC2); assay: Inhibition of recombinant TASK-3 in stably transfected CHO cells, KCl-induced depolarization, voltage-sensitive dye (B-2); type: cell-based; design: expressed in transfected cells; host or cells: stably transfected CHO cells; settings: depolarization induced by 40 mM potassium chloride, some mean values from multiple determinations
Sequence of human TASK-3 (Q9NPC2 whole entry): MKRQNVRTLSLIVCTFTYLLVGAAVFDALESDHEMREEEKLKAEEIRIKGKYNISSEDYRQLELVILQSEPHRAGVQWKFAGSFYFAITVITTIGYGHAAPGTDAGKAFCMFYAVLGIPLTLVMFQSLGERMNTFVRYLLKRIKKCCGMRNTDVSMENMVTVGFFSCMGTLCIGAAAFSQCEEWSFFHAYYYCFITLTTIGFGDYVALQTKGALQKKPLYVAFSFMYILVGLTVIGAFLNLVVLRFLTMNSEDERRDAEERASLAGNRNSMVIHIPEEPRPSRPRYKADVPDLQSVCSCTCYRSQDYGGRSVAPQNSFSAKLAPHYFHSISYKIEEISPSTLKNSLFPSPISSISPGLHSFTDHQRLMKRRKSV
Summary of the method: as §1

Sequence of human TASK-1 (O14649 whole entry): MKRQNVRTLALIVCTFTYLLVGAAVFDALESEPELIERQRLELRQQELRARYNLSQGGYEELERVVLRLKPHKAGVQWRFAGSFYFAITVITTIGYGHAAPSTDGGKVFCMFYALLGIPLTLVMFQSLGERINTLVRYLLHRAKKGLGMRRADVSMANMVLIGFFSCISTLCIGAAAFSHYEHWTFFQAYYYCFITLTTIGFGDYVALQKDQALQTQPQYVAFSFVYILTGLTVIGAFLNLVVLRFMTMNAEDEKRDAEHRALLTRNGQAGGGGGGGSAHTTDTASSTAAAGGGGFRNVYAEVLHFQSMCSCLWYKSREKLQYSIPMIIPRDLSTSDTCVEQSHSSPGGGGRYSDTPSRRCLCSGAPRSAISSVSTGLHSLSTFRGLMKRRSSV

Structure (SMILES) | IC50 (human TASK-1) [nM] | IC50 (human TASK-3) [nM]
CN(C(=O)N1C2CCC1CN(Cc1c(-c3ccc(Cl)cc3)nc3ccccn13)C2)c1ccccc1 [Example 172, 3-{[2-(4-Chlorophenyl)imidazo[1,2-a]pyridin-3-yl]methyl}-N-methyl-N-phenyl-3,8-diazabicyclo[3.2.1]octane-8-carboxamide] | 5200 | 80
O=C(N1CCOCC1)N1C2CCC1CN(Cc1c(-c3ccc(Cl)cc3)nc3ccccn13)C2 [Example 173, (3-{[2-(4-Chlorophenyl)imidazo[1,2-a]pyridin-3-yl]methyl}-3,8-diazabicyclo[3.2.1]oct-8-yl)(morpholin-4-yl)methanone] | 1700 | 32
CC(C)N(C(=O)N1C2CCC1CN(Cc1c(-c3ccc(Cl)cc3)nc3ccccn13)C2)C(C)C [Example 174, 3-{[2-(4-Chlorophenyl)imidazo[1,2-a]pyridin-3-yl]methyl}-N,N-diisopropyl-3,8-diazabicyclo[3.2.1]octane-8-carboxamide] | 91 | 13
CCN(C(=O)N1C2CCC1CN(Cc1c(-c3ccc(Cl)cc3)nc3ccccn13)C2)C1CCCCC1 [Example 175, 3-{[2-(4-Chlorophenyl)imidazo[1,2-a]pyridin-3-yl]methyl}-N-cyclohexyl-N-ethyl-3,8-diazabicyclo[3.2.1]octane-8-carboxamide] | 43 | 200
O=C(N1CCCC1)N1C2CCC1CN(Cc1c(-c3ccc(Cl)cc3)nc3ccccn13)C2 [Example 176, (3-([2-(4-Chlorophenyl)imidazo[1,2-a]pyridin-3-yl]methyl}-3,8-diazabicyclo[3.2.1]oct-8-yl)(pyrrolidin-1-yl)methanone] | 49 | 10
CCN(C(=O)N1C2CCC1CN(Cc1c(-c3ccc(Cl)cc3)nc3ccccn13)C2)c1ccccc1 [Example 177, 3-{[2-(4-Chlorophenyl)imidazo[1,2-a]pyridin-3-yl]methyl}-N-ethyl-N-phenyl-3,8-diazabicyclo[3.2.1]octane-8-carboxamide] | 4000 | 130
CC(C)N(C)C(=O)N1C2CCC1CN(Cc1c(-c3ccc(Cl)cc3)nc3ccccn13)C2 [Example 178, 3-{[2-(4-Chlorophenyl)imidazo[1,2-a]pyridin-3-yl]methyl}-N-isopropyl-N-methyl-3,8-diazabicyclo[3.2.1]octane-8-carboxamide] | 290 | 17
O=C(N1CCCCC1)N1C2CCC1CN(Cc1c(-c3ccc(Cl)cc3)nc3ccccn13)C2 [Example 179, (3-{[2-(4-Chlorophenyl)imidazo[1,2-a]pyridin-3-yl]methyl}-3,8-diazabicyclo[3.2.1]oct-8-yl)(piperidin-1-yl)methanone] | 270 | 2.9
CN(C)C(=O)N1C2CCC1CN(Cc1c(-c3ccc(Cl)cc3)nc3ccccn13)C2 [Example 180, 3-{[2-(4-Chlorophenyl)imidazo[1,2-a]pyridin-3-yl]methyl}-N,N-dimethyl-3,8-diazabicyclo[3.2.1]octane-8-carboxamide] | 220 | 23
CCN(C(=O)N1C2CCC1CN(Cc1c(-c3ccc(Cl)cc3)nc3ccccn13)C2)c1ccc(C)cc1 [Example 181, 3-{[2-(4-Chlorophenyl)imidazo[1,2-a]pyridin-3-yl]methyl}-N-ethyl-N-(4-methylphenyl)-3,8-diazabicyclo[3.2.1]octane-8-carboxamide] | 4100 | 1000
CC(C)N(C(=O)N1C2CCC1CN(Cc1c(-c3ccc(Cl)cc3)nc3ccccn13)C2)c1ccc(Cl)cc1 [Example 182, N-(4-Chlorophenyl)-3-{[2-(4-chlorophenyl)imidazo[1,2-a]pyridin-3-yl]methyl}-N-isopropyl-3,8-diazabicyclo[3.2.1]octane-8-carboxamide] | 6100 | 1000
O=C(N1CCSCC1)N1C2CCC1CN(Cc1c(-c3ccc(Cl)cc3)nc3ccccn13)C2 [Example 183, (3-{[2-(4-Chlorophenyl)imidazo[1,2-a]pyridin-3-yl]methyl}-3,8-diazabicyclo[3.2.1]oct-8-yl)(thiomorpholin-4-yl)methanone] | 450 | 26
COC(=O)N1C2CCC1CN(Cc1c(-c3ccc(Cl)cc3)nc3ccccn13)C2 [Example 184, Methyl 3-{[2-(4-chlorophenyl)imidazo[1,2-a]pyridin-3-yl]methyl}-3,8-diazabicyclo[3.2.1]octane-8-carboxylate] | 2900 | 72
O=C(OC1CCCC1)N1C2CCC1CN(Cc1c(-c3ccc(Cl)cc3)nc3ccccn13)C2 [Example 186, Cyclopentyl 3-{[2-(4-chlorophenyl)imidazo[1,2-a]pyridin-3-yl]methyl}-3,8-diazabicyclo[3.2.1]octane-8-carboxylate] | 730 | 44
O=C(OC1CCCCC1)N1C2CCC1CN(Cc1c(-c3ccc(Cl)cc3)nc3ccccn13)C2 [Example 187, Cyclohexyl 3-{[2-(4-chlorophenyl)imidazo[1,2-a]pyridin-3-yl]methyl}-3,8-diazabicyclo[3.2.1]octane-8-carboxylate] | 3800 | 200
CCN(CC)C(=O)N1C2COCC1CN(Cc1c(-c3ccc(Cl)cc3)nc3ccccn13)C2 [Example 188, 7-{[2-(4-Chlorophenyl)imidazo[1,2-a]pyridin-3-yl]methyl}-N,N-diethyl-3-oxa-7,9-diazabicyclo[3.3.1]nonane-9-carboxamide] | 60 | 5.9
O=C(N1CCOCC1)N1C2COCC1CN(Cc1c(-c3ccc(Cl)cc3)nc3ccccn13)C2 [Example 189, (7-{[2-(4-Chlorophenyl)imidazo[1,2-a]pyridin-3-yl]methyl}-3-oxa-7,9-diazabicyclo[3.3.1]non-9-yl)(morpholin-4-yl)methanone] | 8300 | 520
CC(C)N(C(=O)N1C2COCC1CN(Cc1c(-c3ccc(Cl)cc3)nc3ccccn13)C2)C(C)C [Example 190, 7-{[2-(4-Chlorophenyl)imidazo[1,2-a]pyridin-3-yl]methyl}-N,N-diisopropyl-3-oxa-7,9-diazabicyclo[3.3.1]nonane-9-carboxamide] | 170 | 19
CCN(C(=O)N1C2COCC1CN(Cc1c(-c3ccc(Cl)cc3)nc3ccccn13)C2)C1CCCCC1 [Example 191, 7-{[2-(4-Chlorophenyl)imidazo[1,2-a]pyridin-3-yl]methyl}-N-cyclohexyl-N-ethyl-3-oxa-7,9-diazabicyclo[3.3.1]nonane-9-carboxamide] | 9500 | 190
O=C(N1CCCC1)N1C2COCC1CN(Cc1c(-c3ccc(Cl)cc3)nc3ccccn13)C2 [Example 192, (7-{[2-(4-Chlorophenyl)imidazo[1,2-a]pyridin-3-yl]methyl}-3-oxa-7,9-diazabicyclo[3.3.l]non-9-yl)(pyrrolidin-1-yl)methanone] | 870 | 73
CCN(C(=O)N1C2COCC1CN(Cc1c(-c3ccc(Cl)cc3)nc3ccccn13)C2)c1ccccc1 [Example 193, 7-{[2-(4-Chlorophenyl)imidazo[1,2-a]pyridin-3-yl]methyl}-N-ethyl-N-phenyl-3-oxa-7,9-diazabicyclo[3.3.1]nonane-9-carboxamide] | 7100 | 100
